We go through 32 compounds from patent US6242428A, “Nucleoside analogs and uses in treating Plasmodium falciparum infection” (Unisearch Limited, priority 1998, dated 2001).

Entries after “also recorded” stand apart in the source; their conditions may differ. Where two headings read alike, the source gives them in different places.

One series addresses P. falciparum. As to the kind of experiment: In vitro toxicity against P. falciparum in culture (radiolabelled hypoxanthine incorporation / lactate dehydrogenase assay). In kind it is cell-based, Plasmodium falciparum, FCQ27. Here is the method: P. falciparum, FCQ27, was maintained in culture using the techniques described by Trager & Jensen (W. Traqer and J. B. Jensen, Science, 193 673-675 (1976)). Cultures containing 2% hematocrit suspensions of parasitized human type O^+ erythrocytes in RPMI 1640 medium, supplemented with 25 mM HEPES-KOH, pH 7.2, 25 mM NaHCO3 and 10% human type O^+ serum (v/v) are maintained in modular incubator chambers at 37° C. in a gas mixture of 5% O2, 5% CO2 and 90% N2. The isolate of P. falciparum used in these experiments was FCQ27, routinely maintained in synchronized or asynchronous in vitro cultures at low hematocrit.
The potential toxicity of nucleoside analogues against P. falciparum in culture was tested in microtitre plates over the range of drug concentrations for 24 hours. The procedures for monitoring parasite viability is well established (A. M. Gero, H. V. Scott, W. J. O'Sullivan and R. I. Christopherson, Mol. Biochem. Parasitol. 34, 87-89 (1989)) and is based on radiolabelled hypoxanthine or isoleucine incorporation. The incorporation of [G-^3 H]hypoxanthine into the nucleic acids of P. falciparum was used to assess the viability of the parasite in vitro. Microculture plates were prepared with each well containing 225 μl of a 2% hematocrit culture of asynchronous parasited erythrocytes (1% parasitized cells). Each plate, containing varying concentrations of the drug to be studied (up to 200 μM final concentration for initial screen), was incubated for 24 h at 37° C. in a gas mixture of 5% O2, 5% CO2 and 90% N2, at which point [G-^3 H] hypoxanthine was added to each well and the incubation continued under identical conditions for a further 18-20 h. The control infected cells (i.e. without drug), routinely reached a parasitemia of 6-8% before harvesting. Expediency was aided by 96-well plate counter using lactate dehydrogenase for the drug susceptibility assay (L. K. Basco, F. Marguet, M. T. Makler and J. Lebbras, Exp. Parasitol. 80, 260-271 (1995); M. T. Makler and D. J. Hinrichs; Am. J. Trop. Med. Hyg. 48, 205-210 (1993)). This assay gave the identical results to the hypoxanthine technique. In addition, for each experiment, microscopic counting of Giemsa stained thin slides was used as a control.
The biological screen involved evaluation of the compounds against the protozoan P. falciparum in in vitro culture. The range of drug concentrations was used independently by two assays. One, radiolabelled hypoxanthine incorporation into the nucleic acid of P. falciparum, and the other, more expedient assay, a 96-well plate susceptibility assay using lactate dehydrogenase. Both assays gave identical results. In addition, microscopic counting of Giemsa stained thin slides was used as a control. Examples of experimental curves are attached as Appendix 2. The biological tests were done at several concentrations. The highest concentration was 200 μM, the compounds were considered active at concentrations less than 40 μM.

Series [1] concerns P. falciparum infected erythrocytes (trophozoites). The format is in vitro ADME, human erythrocytes infected with Plasmodium falciparum. Here is the method:
The metabolism of the L-nucleoside conjugates was studied by HPLC analysis. The primary aim was to determine their ability to be catabolized by parasite purine salvage enzymes. Some effect on the purine metabolic pools was also observed.
For each HPLC determination 200 μL of packed cells of 80-90% trophozoite infected cells were used. These were isolated from in vitro cultures by synchronization of the parasites in in vitro cultures using sterile D-sorbitol (L. Lambros and J. P. Vanderberg, Parasitol. 65, 418-420 (1979)) followed by separation of the trophozoites from non infected erythrocytes by Percoll gradients as described previously (A. M. Gero, H. V. Scott, W. J. O'Sullivan and R. I. Christopherson, Mol. Biochem. Parasitol. 34, 87-89 (1989)). Trophozoites were incubated at 37° C. for 2 hours with each compound to be tested. Compounds were incubated with both whole infected cells as whole and lyzed uninfected normal erythrocytes to determine:
a) entry to the cell (whether they were transported);
Drug incubation was terminated by centrifugation through silicon oil using the method of Upston and Gero (J. M. Upston and A. M. Gero, Biochem. Biophys. Acta. 1236, 249-258 (1995)). This procedure separated intact trophozoites from extracellular non-transported drug solution.
The metabolism of nucleosides with potential chemotherapeutic activity was assessed by the analysis of cytoplasmic samples by reverse phase ion-pair high performance liquid chromatography (R. S. Toguzov, Y. V. Tikhonov, A. M. Pimenov, V. Prokudin, Journal of Chromatography, I. Biomedical Appl. 434, 447-453 (1988)). Nucleotides, nucleosides and bases were separated by this HPLC method.
It has been established that transport and uptake in parasite invaded cells is different from that of normal blood erythrocytes (A. M. Gero & A. M. Wood, In: Pyrine & Pyrimidine Methabolism in Man VII, Part A. (R. A. Harkness et al., Eds) Plenum Press, NY, 169-172 (1991)). Invasion by the malaria parasite comprises the cell membrane, allowing penetration of unnatural substances of various size and shape, whereas normal cells are very selective in uptake. It was shown that L-nucleosides and their derivatives easily penetrate invaded cells, while they have a very slow rate of uptake into normal cells, if they enter at all. In order to obtain preliminary data on transport, uptake and metabolism, the HPLC method was used to analyze the following 10 Lipitek compounds: L-101, L-103, L-109, L-111, L-117, L-133, L-138, GCl 1007, GCl 1027, GCl 1069.
These compounds were chosen for the identification of possible metabolites. In this experiment the compounds were incubated with both whole infected cells, and with whole and lysed uninfected cells, followed by the separation of unreacted compound and HPLC analysis.

Where [2] appears, read: Table 1, 24 h drug exposure, up to 200 μM, read-out: IC50.
[3] abbreviates: Plasmodium falciparum, 24 h, Table 1, 24 h drug exposure, up to 200 μM, read-out: IC50.
[4] abbreviates: Plasmodium falciparum, Table 5, β-D-FUdR and possible metabolic products, read-out: IC50.
The mark [5] stands for this setting: Plasmodium falciparum, Table 2, FUdR linkage position 5', read-out: IC50.

For β-D-FUdR, β-L-A [L-144], the IC50 on P. falciparum (setting [2]) came to 140 µM; on P. falciparum (Table 2, FUdR linkage position 3', read-out: IC50), 140 µM. Regarding `Nc1ncnc2c1ncn2[C@H]1C[C@@H](O)[C@H](CO)O1` [GCI 1069, α-L-dA], the IC50 with P. falciparum (setting [3]) is greater than 200 µM. Besides, in the series with P. falciparum (statement in the transport and metabolism study), the “toxicity against P. falciparum, in words” value is “toxic against P. falciparum”. Further, in series [1], the “entry to the infected cell” value is given as “entered the infected cells”. Turning to `O=c1[nH]c(=O)n([C@H]2C[C@H](O)[C@@H](COP(=O)(O)O)O2)cc1F` [β-D-5'-FUdRmP, β-D-FUdR monophosphate, reference compound], the IC50 with P. falciparum (setting [4]) was determined as 50 µM. On to `Nc1nc2c(ncn2[C@@H]2C[C@@H](O)[C@H](CO)O2)c(=O)[nH]1` [GCI 1070, β-L-dG], for which the IC50 with P. falciparum (setting [3]) is greater than 200 µM. As to β-D-FUdR 3'-5'SATE [B03], the IC50 on P. falciparum (setting [2]) came to 6 µM.

With `CNc1ncnc2c1ncn2[C@H]1O[C@@H](CO)[C@H](O)[C@@H]1O` [GCI 1085, N^6 -methyl-β-L-A], in the series on P. falciparum (setting [3]), the IC50 was greater than 200 µM. β-D-FUdR 3'SATE [B01]: the IC50 on P. falciparum (setting [2]) was determined as 100 µM. Regarding `O=c1[nH]cc(F)c(=O)[nH]1` [5FUracil, 5-fluorouracil, reference compound], in the series on P. falciparum (Plasmodium falciparum), the IC50 came out at 6 µM. For the compound `Nc1ncnc2c1ncn2[C@@H]1CC[C@H](CO)O1` [GCI 1077, β-L-ddA], the IC50 in the series on P. falciparum (setting [3]) was greater than 200 µM. For the compound `O=c1[nH]c(=O)n([C@H]2C[C@H](O)[C@@H](CO)O2)cc1F` [β-D-FUdR, β-D-5-fluoro-2'-deoxyuridine, reference compound], the IC50 in the series on P. falciparum (setting [4]) stood at 34 µM.

Take `O=c1[nH]c(=O)n([C@@H]2C[C@@H](O)[C@H](CO)O2)cc1F` [β-L-FUdR, β-L-5-fluoro-2'-deoxyuridine]: the IC50 with P. falciparum (Plasmodium falciparum, Erythrocyte, 24 h, Table 6, SATE derivatives of FUdR, read-out: ID50 (the source's name)) is greater than 200 µM. As for `Nc1ncnc2c1ncn2[C@@H]1O[C@@H](CO)[C@H](O)[C@H]1O` [GCI 1018, α-L-arabinofuranosyl adenine], the IC50 in the series with P. falciparum (Plasmodium falciparum, 24 h) was greater than 200 µM. On to `Nc1ccn([C@@H]2C[C@@H](OP(=O)(O)OC[C@H]3O[C@@H](n4cc(F)c(=O)[nH]c4=O)C[C@@H]3O)[C@H](CO)O2)c(=O)n1` [L-113], for which the IC50 with P. falciparum (setting [3]) amounted to 17 µM; in the series on P. falciparum (setting [5]) it was 17 µM; with P. falciparum (Plasmodium falciparum, Table 3, β-L configuration of the L-nucleoside, read-out: IC50) it was 17 µM. On to `Nc1ncnc2c1ncn2[C@H]1CC[C@H](CO)O1` [GCI 1079, α-L-ddA], for which, in the series on P. falciparum (setting [3]), the IC50 is greater than 200 µM. As to `Nc1ncnc2c1ncn2[C@@H]1C[C@@H](OP(O)(=S)OC[C@H]2O[C@@H](n3cc(F)c(=O)[nH]c3=O)C[C@@H]2O)[C@H](CO)O1` (stereo partly drawn) [L-138-thio, β-L-dA, β-D-FUdR, S = P-O], in the series on P. falciparum, the “In vitro activity against P. falciparum, in words” value is “reduced dramatically”. The IC50 in the series on P. falciparum (Plasmodium falciparum, 24 h) came out at 100 µM. `Nc1ncnc2c1ncn2[C@H]1C[C@@H](OP(=O)(O)OC[C@H]2O[C@@H](n3cc(F)c(=O)[nH]c3=O)C[C@@H]2O)[C@H](CO)O1` [L-125, α-L-dA, β-D-FUdR]: the “In vitro activity against P. falciparum, in words” value in the series on P. falciparum was “reduces the dimer activity in comparison with dimers containing the β-L unit”. Further, the IC50 worked out at 60 µM in the series on P. falciparum (setting [3]); 60 µM in the series on P. falciparum (setting [5]); 60 µM in the series with P. falciparum (Plasmodium falciparum, Table 3, α-L configuration of the L-nucleoside, read-out: IC50). In the case of `O=c1[nH]cnc2c1ncn2[C@@H]1C[C@@H](O)[C@H](CO)O1` [GCI 1037, β-L-dI], the IC50 with P. falciparum (setting [3]) was greater than 200 µM.

`Nc1nc2c(ncn2[C@H]2O[C@@H](CO)[C@H](O)[C@@H]2O)c(=O)[nH]1` [GCI 1030, β-L-G]: in the series on P. falciparum (setting [3]), the IC50 was greater than 200 µM. For `O=c1ccn([C@@H]2C[C@@H](OP(O)(=S)OC[C@H]3O[C@@H](n4cc(F)c(=O)[nH]c4=O)C[C@@H]3O)[C@H](CO)O2)c(=O)[nH]1` (stereo partly drawn) [L-117 thio, β-L-dU, β-D-FUdR S = P-O], in the series with P. falciparum, the “In vitro activity against P. falciparum, in words” value is “reduced dramatically”. For the same compound, the IC50 with P. falciparum (Plasmodium falciparum) is greater than 200 µM; in the series on P. falciparum (Plasmodium falciparum, 24 h), greater than 200 µM. In the series on P. falciparum (Plasmodium falciparum, 24 h), `Nc1ncnc2c1ncn2[C@@H]1O[C@@H](CO)[C@H](O)[C@@H]1O` [GCI 1066, α-L-A] had an IC50 greater than 200 µM. Turning to β-L-FUdR 5'SATE [B04], the IC50 on P. falciparum (setting [2]) amounted to 200 µM. On to `O=c1[nH]c(=O)n([C@H]2C[C@H](OP(O)(=S)OC[C@H]3O[C@@H](n4cc(F)c(=O)[nH]c4=O)C[C@@H]3O)[C@@H](CO)O2)cc1F` (stereo partly drawn) [L-128, β-D, β-D-FUdR] S = P-O], for which the “In vitro activity against P. falciparum, in words” value in the series on P. falciparum was “only active phosphorothioate analog; also recorded: greater in comparison with all possible products of hydrolysis; also recorded: most active compound tested”. Further, the “factor of increase in activity on replacing phosphate by phosphorothioate” value in the series with P. falciparum (L-128 versus L-101) worked out at 10. Further, the IC50 in the series with P. falciparum (Plasmodium falciparum) amounted to 1.5 µM; in the series on P. falciparum (Plasmodium falciparum, 24 h), 1.5 µM. Regarding β-L-mercapto-G [GCI 1034], the IC50 at P. falciparum (setting [2]) was greater than 200 µM. Still for that read-out and setting: under β-D-FUdR 5'SATE [B02] stands 60 µM; under β-L-dU, NBMPR [L-145], greater than 200 µM. `O=c1[nH]c(=O)n([C@H]2C[C@@H](OP(O)(=S)OC[C@H]3O[C@@H](n4cc(F)c(=O)[nH]c4=O)C[C@@H]3O)[C@H](CO)O2)cc1F` (stereo partly drawn) [L-103 thio, [α-L,β-D]-FUdR, S = P-O]: the “In vitro activity against P. falciparum, in words” value with P. falciparum is recorded as “reduced dramatically”. Moreover, the IC50 in the series with P. falciparum (Plasmodium falciparum) is greater than 200 µM; in the series on P. falciparum (Plasmodium falciparum, 24 h), greater than 200 µM.

As to 6-thio-β-L-purine [GCI 1076], the IC50 at P. falciparum (setting [2]) was greater than 200 µM. For the compound `Nc1ncnc2c1ncn2[C@@H]1C[C@@H](O)[C@H](CO)O1` [GCI 1036, β-L-Da], in the series with P. falciparum (setting [3]), the IC50 was greater than 200 µM. Regarding α-L-FUdR 5'SATE [B06], the IC50 on P. falciparum (setting [2]) is 150 µM. `O=[N+]([O-])c1ccc(CSc2ncnc3c2ncn3[C@@H]2O[C@H](CO)[C@@H](O)[C@H]2O)cc1` [NBMPR, nitrobenzylthionosine, reference compound]: the IC50 in the series on P. falciparum (setting [3]) was determined as 100 µM. Regarding α-L-dT, NBMPR [L-146], on P. falciparum (setting [2]), the IC50 was greater than 200 µM. Take `O=c1[nH]cnc2c1ncn2[C@H]1O[C@@H](CO)[C@H](O)[C@@H]1O` [GCI 1033, β-L-I]: the IC50 in the series with P. falciparum (setting [3]) was greater than 200 µM.
